# Results from patent US5488049A, “Method of treating learning and memory disorders using benzothiadiazide derivatives as nootropic agents” (FIDIA - Georgetown Institute for the Neuro-Sciences, priority 1993, dated 1996).
# Entries after “also recorded” stand apart in the source; their conditions may differ.
# What was measured:
# rats = assay: Water maze: drug action on alprazolam-disrupted learning behavior in rats; assay type: in vivo, rat; conditions: IDRA 21 10 mg/kg os, 30 min pretreatment; alprazolam 1.5 mg/kg i.p.
# Method: Rats (male 250 g b.w.) were trained two days, once a day, in maze A (See insert A). […] Rats were exposed to a new maze configuration (Maze B) in 4 successive trials 15, 30, 45, and 60 min after the i.p. injections.
# The water maze apparatus was adapted from Kant et al., (16), and consists of three concentric squares placed inside a 5 ft plastic pool (FIG. 6). The walls of the maze are 50 cm in height and are constructed from black opaque plastic to allow for tracking of the animal with an overhead camera. The alleys between the walls are 16 cm wide. In the center of each wall there is a removable doorway. The opening of doorways allows for the construction of mazes with an increasing number of potential error possibilities. (See diagram for Maze A and Maze B, FIG. 6). The maze is located in a room 10'×15' at constant temperature (18° C.) adjacent to the vivarium. The room is illuminated with overhead lights which also serve as spatial cues. Additional spatial cues are provided by the position of the investigator and a number of small white x's placed within specific locations upon the walls of the maze. The maze is filled with water (18°)C. to a depth of 25 cm.
# Seven days prior to drug studies, rats were tested in Maze A (forced maze) on two consecutive days. Pretesting with the "forced" maze enabled the assessment of the animals' general motor, sensory and motivational abilities, and facilitated the exclusion of those animals unable to meet pretesting criteria. Performance was assessed by determining either swim time, errors committed, or path length measured with a computerized recording device. Errors are defined as whole body entry into alleys not leading directly to the exit platform (i.e., shaded portions in FIG. 6). Rats were excluded from the study if their swim path length and/or number of errors were two standard deviations above the mean […] of the entire group. During the first two trials, the rats were placed into the center of the maze and given a maximum of 180 secs to find the "exit platform" located at the "finish" (FIG. 6). The time required, the number of errors, and the path length were recorded for each trial. […] Rats meeting the criteria were randomly divided into groups. On the day of the experiment, a single trial was run (Maze A) in order to establish a baseline of performance. Following drug administration, the rats were again tested once on Maze A to establish a baseline of post-treatment performance. Following an additional interatrial interval of 30 min., the rats were tested on Maze B.
# In these experiments, rats were trained in Maze B 15, 30, 45 and 60 min. after drug injection.
# [1] = system: kainate-activated current; assay: Selectivity: ionic current elicited by 20 μM kainate; assay type: cell-based, rat
# Method: (§1) Young rats (12-16 days old) were decapitated and the brains quickly removed and placed in ice-cold Ringer solution. Thin slices of hippocampus (250 μm) were then cut with a vibratome slicer (Lancer, St. Louis, Mo.) and kept in Ringer solution at 37° C. until use. The experiments were carried out at room temperature with the slice totally submerged in a 1 ml volume recording chamber and under continuous perfusion with Ringer solution at a rate of 6 ml/min using an upright Hoffman modulation contrast microscope (Carl Zeiss, Germany) equipped with a 40×water immersion objective.
# (§2) Media and drug application. The external Ringer solution contained (in mM): NaCl 120; KCl 3.1; CaCl2 2; MgCl2 1; KH2 PO4 1; NaHCO3 26; glucose 2.7; and it was continuously bubbled with 95% O2 and 5% CO2. Patch pipettes were filled with a solution containing (in mM): K-gluconate 140; MgCl2 1; ATP.Mg 2; EGTA 0.5; HEPES-KOH 10, pH 7.2. All the drugs under investigation were applied through the recording chamber perfusion system via parallel inputs having a common entry into the chamber. Agonist application was attained using two different systems that allowed a slow or a rapid solution change. Slow solution changes were used during recordings in whole-cell configuration and were obtained by exchanging the solution of the recording chamber within a few seconds. Fast solution changes were obtained with the use of the Y-shaped tubing method that allows complete exchange of solution in less than 10 ms, and is described in detail by Murase et al. (1989).
# Ionic currents in whole-cell configuration and outside-out excised membrane patches were monitored using the patch clamp technique (15).
# AMPA receptor [2] = assay: Fast application with double barrel pipette: AMPA receptor desensitization in outside-out patches from CAl hippocampal pyramidal neurons; assay type: cell-based, rat
# Method: as §1, §2
# Briefly, a polyethylene tubing (1 mm i.d.) is bent in a U-shaped, and another fine polyethylene tubing (50 μi.d.) and 10 mm length) is inserted into a small hole in the U-tubing making the tip of the Y-tubing. Solutions are fed to the Y-tubing by gravity, and negative pressure facilitates exchange of the solution. The tip of the Y-tubing is positioned 100 μm from the cell investigated, and upon opening and closing of a valve that controls the negative pressure, it was possible to respectively change rapidly and apply a number of different test solutions. This method was used to apply agonists to excised outside-out membrane patches. More rapid drug applications were used to apply agonists to excised outside-out membrane patches, and were obtained through a double-barrelled pipette positioned close to the recording pipette containing the membrane patch. […] The agonist was applied for a period of 150 ms and the time necessary for a complete exchange of the solution was less than 1 ms as measured at the opening of a patch pipette containing different dilutions of the drugs under study. […]
# Ionic currents in whole-cell configuration and outside-out excised membrane patches were monitored using the patch clamp technique (15). […]
# AMPA receptor [3] = assay: Fast application with Y-tubing: dose-response on desensitization of glutamate current in outside-out patches from CAl pyramidal neurons; assay type: cell-based, rat; conditions: increasing doses, 5 μM MK-801
# From the text: as §2, with “Fast solution changes were obtained with the use of the Y-shaped tubing method that allows complete exchange of solution in less than 10 ms, and is described in detail by Murase et al. (1989).” left out
# Briefly, a polyethylene tubing (1 mm i.d.) is bent in a U-shaped, and another fine polyethylene tubing (50 μi.d.) and 10 mm length) is inserted into a small hole in the U-tubing making the tip of the Y-tubing. […] The agonist was applied for a period of 150 ms and the time necessary for a complete exchange of the solution was less than 1 ms as measured at the opening of a patch pipette containing different dilutions of the drugs under study. […]
# Dose-response studies were performed with the Y-tubing system, and analyzed with sigmoid interpolation (Graphpad Academic Press). […]
structure (smiles),measurement,setting,value
"CC1Nc2ccc(Cl)cc2S(=O)(=O)N1 (racemic) [IDRA 21, 7-chloro-3-methyl-3,4-dihydro-2H 1,2,4-benzothiadiazine S-S dioxide]",antagonism of alprazolam amnesic effect,rats,reduces the amnesic effect of alprazolam; also recorded: attenuates the learning disruptive effect of Alprazolam
same,effect on kainate-activated current,"[1]; 1 mM compound, 20 μM kainate",failed to potentiate the kainate-activated current
same,effect on kainate responses at doses that decreased AMPA desensitization,[1]; all doses that decrease/inhibit AMPA desensitization,failed to affect kainate responses
same,removal of glutamate-induced desensitization,"AMPA receptor [2]; 1 mM IDRA 21, double barrel, outside-out patches, 4 of 5 patches",completely removed the desensitization induced by glutamate in 4 of 5 patches tested
same,desensitization of AMPA/Kainate receptors (summary),AMPA receptor [2]; summary statement,reduction in the desensitization of AMPA/Kainate receptors
same,desensitization of current activated by 100 μM glutamate,AMPA receptor [3],decreased by increasing doses
